Where two headings read alike, the source gives them in different places.
What was measured:
MV4;11 cells = assay: Proliferation assay, MV4;11 (CellTiter-Glo, 7 days); assay type: cell-based, human; conditions: read-out: MV-4-11 IC50
Outline: (§1)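 Cells were seeded at line-specific low densities for linear growth, exposed to 3.16-fold serial compound dilutions at 0.1% DMSO, and incubated 7 days at 37 °C, 5% CO2. Viability was read by CellTiter-Glo 2.0 luminescence; IC50 came from one-site fits of % inhibition, normalized between DMSO-treated cells (100%) and a day-0 plate (0%).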

MOLM-13 cells = assay: Proliferation assay, MOLM-13 (CellTiter-Glo, 7 days); assay type: cell-based, human
Outline: as §1

HEL cells = assay: Proliferation assay, HEL control cell line (CellTiter-Glo, 7 days); assay type: cell-based, human
Outline: as §1

[1] = Caco-2 cell monolayers intrinsic permeation assay in the presence of efflux inhibitors; assay type: in vitro ADME; conditions: Caco-2, with efflux inhibitors
Outline: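 Caco-2 monolayers grown 14–18 days on Transwells; compound dosed apically in HBSS with efflux inhibitors (Zosuquidar, Benzbromarone, KO-143), inhibitors also basolateral, 37 °C with shaking. Sampled at 0, 45 and 120 min, analysed by LC/MS/MS; apical-to-basolateral Papp (cm/s) calculated.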

Row | SMILES | IC50 (MV4;11 cells; Homo sapiens, MV4-11, 168 h) | IC50 (MOLM-13 cells) | Papp A→B [1] | IC50 (MOLM-13 cells; Homo sapiens, MOLM-13, 168 h) | IC50 (MV4;11 cells) | IC50 (HEL cells; Homo sapiens, HEL, 168 h) | IC50 (HEL cells)
1 | CCN(C(=O)c1cc(F)ccc1-n1cc(C(=O)C2CN(C(=O)[C@H]3N[C@@H]4CC[C@H]3C4)C2)c2ccncc21)C(C)C [Example 8, 2-(3-(1-((1R,3S,4S)-2-Azabicyclo[2.2.1]heptane-3-carbonyl)azetidine-3-carbonyl)-1H-pyrrolo[2,3-c]pyridin-1-yl)-N-ethyl-5-fluoro-N-isopropylbenzamide] | 100 nM |  | 0.2 ×10⁻⁶ cm/s | 142 nM |  | > 10000 nM | 
2 | CC(C)N(C(=O)c1cc(F)ccc1-n1cc(C(=O)[C@H]2CCN(C(=O)[C@H]3N[C@@H]4CC[C@H]3C4)C2)c2ccncc21)C(C)C [Example 2, 2-(3-((S)-1-((1R,3S,4S)-2-Azabicyclo[2.2.1]heptane-3-carbonyl)pyrrolidine-3-carbonyl)-1H-pyrrolo[2,3-c]pyridin-1-yl)-5-fluoro-N,N-diisopropylbenzamide] | 97 nM |  | 0.4 ×10⁻⁶ cm/s | 105 nM |  | > 10000 nM | 
3 | CC(C)N(C(=O)c1cc(F)ccc1-n1cc(C(=O)C2CCN(C[C@H]3CC[C@H](NS(C)(=O)=O)CC3)CC2)c2ccncc21)C(C)C [Example 17, 5-Fluoro-N,N-diisopropyl-2-(3-(1-(((1r,4r)-4-(methylsulfonamido)cyclohexyl)-methyl)piperidine-4-carbonyl)-1H-pyrrolo[2,3-c]pyridin-1-yl)benzamide] | 320 nM |  | 1.8 ×10⁻⁶ cm/s | 107 nM |  | > 10000 nM | 
4 | CC(C)N(C(=O)c1cc(F)ccc1-n1cc(C(=O)[C@H]2CCN(C[C@H]3CC[C@H](NS(C)(=O)=O)CC3)C2)c2ccncc21)C(C)C [Example 1, 5-Fluoro-N,N-diisopropyl-2-(3-((S)-1-(((1r,4S)-4-(methylsulfonamido)-cyclohexyl)methyl)pyrrolidine-3-carbonyl)-1H-pyrrolo[2,3-c]pyridin-1-yl)benzamide] | 166 nM |  | 2.7 ×10⁻⁶ cm/s | 149 nM |  | > 10000 nM | 
5 | CC(C)c1cnccc1-c1cc(F)ccc1-n1cc(C(=O)C2CN(C(=O)[C@H]3N[C@@H]4CC[C@H]3C4)C2)c2ccncc21.O=CO [Example 11, (1-((1R,3S,4S)-2-Azabicyclo[2.2.1]heptane-3-carbonyl)azetidin-3-yl)(1-(4-fluoro-2-(3-isopropylpyridin-4-yl)phenyl)-1H-pyrrolo[2,3-c]pyridin-3-yl)methanone 1·formic acid] | 31 nM |  | 0.7 ×10⁻⁶ cm/s | 50 nM |  | > 10000 nM | 
6 | CC(C)N(C(=O)c1cc(F)ccc1-n1cc(C(=O)C2CCN(C(=O)[C@H]3N[C@@H]4CC[C@H]3C4)CC2)c2ccncc21)C(C)C [Example 16, 2-(3-(1-((1R,3S,4S)-2-Azabicyclo[2.2.1]heptane-3-carbonyl)piperidine-4-carbonyl)-1H-pyrrolo[2,3-c]pyridin-1-yl)-5-fluoro-N,N-diisopropylbenzamide] | 29 nM |  | 0.6 ×10⁻⁶ cm/s | 35 nM |  | > 10000 nM | 
7 | Cc1c(C(=O)C2CCN(C(=O)[C@@H]3CCC4(CC4)N3)CC2)c2ccncc2n1-c1ccc(F)cc1C(=O)N1[C@H](C)COC[C@H]1C (single isomer, unassigned) [Example 58-2] | 35 nM | 37 nM | 5.4 ×10⁻⁶ cm/s |  |  |  | > 10000 nM
8 | CC(C)N(C(=O)c1cc(F)ccc1-n1cc(C(=O)[C@@H]2CCN(C(=O)[C@H]3N[C@@H]4CC[C@H]3C4)C2)c2ccncc21)C(C)C [Example 3, 2-(3-((R)-1-((1R,3S,4S)-2-Azabicyclo[2.2.1]heptane-3-carbonyl)pyrrolidine-3-carbonyl)-1H-pyrrolo[2,3-c]pyridin-1-yl)-5-fluoro-N,N-diisopropylbenzamide] | 99 nM |  | 0.3 ×10⁻⁶ cm/s | 98 nM |  | > 10000 nM | 
9 | CC(C)N(C(=O)c1cc(F)ccc1-n1cc(C(=O)C2CN(C(=O)[C@H]3NC4CCC3CC4)C2)c2ccncc21)C(C)C [Example 6, (S)-2-(3-(1-(2-Azabicyclo[2.2.2]octane-3-carbonyl)azetidine-3-carbonyl)-1H-pyrrolo[2,3-c]pyridin-1-yl)-5-fluoro-N,N-diisopropylbenzamide] | 46 nM |  | < 0.5 ×10⁻⁶ cm/s | 73 nM |  | > 10000 nM | 
10 | CC(C)N(C(=O)c1cc(F)ccc1-n1cc(C(=O)[C@@H]2CCN(C[C@H]3CC[C@H](NS(C)(=O)=O)CC3)C2)c2ccncc21)C(C)C [Example 4, 5-Fluoro-N,N-diisopropyl-2-(3-((R)-1-(((1r,4R)-4-(methylsulfonamido)-cyclohexyl)methyl)pyrrolidine-3-carbonyl)-1H-pyrrolo[2,3-c]pyridin-1-yl)benzamide] | 132 nM |  | 2 ×10⁻⁶ cm/s | 156 nM |  | > 10000 nM | 

Further lines, with some results ahead:

Row | IC50 (MV4;11 cells; Homo sapiens, MV4-11, 168 h) | IC50 (MOLM-13 cells) | Papp A→B [1] | IC50 (MOLM-13 cells; Homo sapiens, MOLM-13, 168 h) | IC50 (MV4;11 cells) | SMILES | IC50 (HEL cells; Homo sapiens, HEL, 168 h) | IC50 (HEL cells)
11 | 33 nM | 42 nM | 1.9 ×10⁻⁶ cm/s |  |  | CCN(C(=O)c1cc(F)ccc1-n1c(C)c(C(=O)C2CCN(C(=O)[C@H]3NC[C@@H]4C[C@@H]43)CC2)c2ccncc21)C(C)C [Example 47, 2-(3-(1-((1S,2S,5R)-3-Azabicyclo[3.1.0]hexane-2-carbonyl)piperidine-4-carbonyl)-2-methyl-1H-pyrrolo[2,3-c]pyridin-1-yl)-N-ethyl-5-fluoro-N-isopropylbenzamide] | > 10000 nM | 
12 | 34 nM |  | 1.1 ×10⁻⁶ cm/s | 39 nM |  | CCN(C(=O)c1cc(F)ccc1-n1cc(C(=O)C2CCN(C(=O)[C@H]3NC[C@@H]4C[C@@H]43)CC2)c2ccncc21)C(C)C [Example 28, 2-(3-(1-((1S,2S,5R)-3-Azabicyclo[3.1.0]hexane-2-carbonyl)piperidine-4-carbonyl)-1H-pyrrolo[2,3-c]pyridin-1-yl)-N-ethyl-5-fluoro-N-isopropylbenzamide] | > 10000 nM | 
13 | 24 nM |  | 1.5 ×10⁻⁶ cm/s | 27 nM |  | CC(C)c1ncccc1-c1cc(F)ccc1-n1cc(C(=O)C2CCN(C(=O)[C@H]3N[C@@H]4CC[C@H]3C4)CC2)c2ccncc21 [Example 38, (1-((1R,3S,4S)-2-Azabicyclo[2.2.1]heptane-3-carbonyl)piperidin-4-yl)(1-(4-fluoro-2-(2-isopropylpyridin-3-yl)phenyl)-1H-pyrrolo[2,3-c]pyridin-3-yl)methanone] | > 10000 nM | 
14 |  | 1260 nM | 3.7 ×10⁻⁶ cm/s |  | 1720 nM | Cc1c(C(=O)C2CCN(C(=O)[C@H]3NC[C@@H]4C[C@@H]43)CC2)c2ccncc2n1-c1ccc(F)cc1C(=O)N(C(C)C)C(C)C (single isomer, unassigned) [Example 55-1] | > 10000 nM | 
15 | 37 nM |  | 0.3 ×10⁻⁶ cm/s | 61 nM |  | O=C(c1cn(-c2ccc(F)cc2-c2cncnc2C2CC2)c2cnccc12)C1CCN(C(=O)[C@H]2N[C@@H]3CC[C@H]2C3)CC1 [Example 40, (1-((1R,3S,4S)-2-Azabicyclo[2.2.1]heptane-3-carbonyl)piperidin-4-yl)(1-(2-(4-cyclopropylpyrimidin-5-yl)-4-fluorophenyl)-1H-pyrrolo[2,3-c]pyridin-3-yl)methanone] | > 10000 nM | 
16 | 40 nM |  | 4 ×10⁻⁶ cm/s | 49 nM |  | Cc1c(C(=O)C2CCN(C(=O)[C@H]3NC[C@@H]4C[C@@H]43)CC2)c2ccncc2n1-c1ccc(F)cc1-c1cnccc1C(C)C [Example 54, (1-((1S,2S,5R)-3-Azabicyclo[3.1.0]hexane-2-carbonyl)piperidin-4-yl)(1-(4-fluoro-2-(4-isopropylpyridin-3-yl)phenyl)-2-methyl-1H-pyrrolo[2,3-c]pyridin-3-yl)methanone] | > 10000 nM | 
17 | 20 nM |  | 1.5 ×10⁻⁶ cm/s | 37 nM |  | COCCN(C)CCC[C@H](C(C)C)N1CCC(C(=O)c2cn(-c3ccc(F)cc3C(=O)N(C(C)C)C(C)C)c3cnccc23)CC1 (racemic) [Example 23, rac-(R)-5-Fluoro-N,N-diisopropyl-2-(3-(1-(6-((2-methoxyethyl)(methyl)amino)-2-methylhexan-3-yl)piperidine-4-carbonyl)-1H-pyrrolo[2,3-c]pyridin-1-yl)benzamide] | > 10000 nM | 
18 | 35 nM |  | 1.9 ×10⁻⁶ cm/s | 38 nM |  | CC(C)N(C(=O)c1cc(F)ccc1-n1cc(C(=O)C2CCN(C(=O)[C@@H]3CCC(C)(C)N3)CC2)c2ccncc21)C(C)C [Example 27, (S)-2-(3-(1-(5,5-Dimethylpyrrolidine-2-carbonyl)piperidine-4-carbonyl)-1H-pyrrolo[2,3-c]pyridin-1-yl)-5-fluoro-N,N-diisopropylbenzamide] | > 10000 nM | 
19 | 25 nM |  | 0.8 ×10⁻⁶ cm/s | 40 nM |  | CC(C)N(C(=O)c1cc(F)ccc1-n1cc(C(=O)C2CCN(C(=O)[C@H]3NC4CCC3CC4)CC2)c2ccncc21)C(C)C [Example 20, (S)-2-(3-(1-(2-Azabicyclo[2.2.2]octane-3-carbonyl)piperidine-4-carbonyl)-1H-pyrrolo[2,3-c]pyridin-1-yl)-5-fluoro-N,N-diisopropylbenzamide] | > 10000 nM | 
20 | 17 nM |  | 3 ×10⁻⁶ cm/s | 30 nM |  | CC(C)N(C(=O)c1cc(F)ccc1-n1cc(C(=O)C2CCN(C(=O)[C@H]3N[C@H]4C[C@@H]3[C@@H](F)C4)CC2)c2ccncc21)C(C)C [Example 22, 5-Fluoro-2-(3-(1-((1S,3S,4S,5S)-5-fluoro-2-azabicyclo[2.2.1]heptane-3-carbonyl)piperidine-4-carbonyl)-1H-pyrrolo[2,3-c]pyridin-1-yl)-N,N-diisopropylbenzamide] | > 10000 nM | 

Source: US20240335431A1, “1-H-PYRROLO[2,3-c]PYRIDINE COMPOUNDS” (Acerta Pharma B.V., priority 2023, published 2024)
